In patent publication US8486920B2, “Composition and method for controlling plant diseases” (priority 2008, dated 2013):
Where two headings read alike, the source gives them in different places.

System: Pythium ultimum, pathogen of cucumber damping-off
Assay type: in vivo
Conditions: cucumber (Sagamihanjiro) seed treatment, 18° C., 13 days
Source text: An acetone solution of ethaboxam and an acetone solution of tolclofos-methyl were mixed to prepare mixed liquids containing ethaboxam and tolclofos-methyl in predetermined concentration. These mixed liquids were adhered on the surface of cucumber (Sagamihanjiro) seeds and allowed to stand still overnight. A plastic pot was filled with sandy soil and the seeds were disseminated on it. Then the seeds were covered with sandy soil which had been mixed with a bran medium on which Pythium ultimum, pathogen of cucumber damping-off, had been allowed to grow. They were irrigated and allowed to grow at 18° C. under humidity for 13 days, and thereafter control effect was checked.
As a comparison, acetone solutions containing ethaboxam in the predetermined concentration and acetone solutions containing tolclofos-methyl in the predetermined concentration were prepared and subjected to similar tests.
The incidence of disease was calculated by Equation 1 and the control value was calculated by Equation 2 based on the incidence of disease.
A: Incidence of disease of plant in untreated area
B: Incidence of disease of plant in treated area
E=X+Y−(X×Y)/100 “Equation 2”

| SMILES | Actual control value (ethaboxam alone 5 g ai/100 kg-seed) [%] | Actual control value (ethaboxam alone 10 g ai/100 kg-seed) [%] | Actual control value (tolclofos-methyl alone 100 g ai/100 kg-seed) [%] | Actual control value (tolclofos-methyl alone 200 g ai/100 kg-seed) [%] |
| --- | --- | --- | --- | --- |
| CCNc1nc(CC)c(C(=O)NC(C#N)c2cccs2)s1 (stereo not shown) [Ethaboxam] | 25 | 58 | – | – |
| COP(=S)(OC)Oc1c(Cl)cc(C)cc1Cl [tolclofos-methyl] | – | – | 0.0 | 0.0 |
